Counter-ions that a name gives are not always drawn.
Biological target: T1, hCCR2b (Homo sapiens, UniProt P41597)
T1 sequence (P41597 1-360 isoform P41597-2): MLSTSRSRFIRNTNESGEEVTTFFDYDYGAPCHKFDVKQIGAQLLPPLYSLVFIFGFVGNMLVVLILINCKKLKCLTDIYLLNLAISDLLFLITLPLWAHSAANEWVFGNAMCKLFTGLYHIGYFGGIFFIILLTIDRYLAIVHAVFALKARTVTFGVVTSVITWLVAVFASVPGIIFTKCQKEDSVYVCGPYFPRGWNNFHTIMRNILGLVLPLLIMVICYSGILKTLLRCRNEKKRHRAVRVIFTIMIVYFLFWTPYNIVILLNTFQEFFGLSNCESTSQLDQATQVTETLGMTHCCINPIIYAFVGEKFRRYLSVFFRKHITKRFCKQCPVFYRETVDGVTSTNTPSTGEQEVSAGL
Test: CCR2 binding assay ([125I]MCP-1, SPA, CHO cell membranes)
Design: expressed in transfected cells; host or cells: CHO cells (membrane preparation)
Settings: membranes from CHO cells expressing hCCR2b, 50 pM [125I]MCP-1; read-out: Binding hCCR2 (Ki)
Protocol: Membranes were prepared from CHO cells expressing mCCR2b or hCCR2b for use in ligand binding studies. Cells were suspended in 50mM Tris-HCL, pH 7.4, 2 mM EDTA, 250 mM Sucrose and 1x Complete EDTA-free protease inhibitor cocktail (Roche) (Buffer A), and disrupted at 4°C by N2 decompression using a cell disruption bomb (Parr Instrument). Following centrifugation at 200 RCF for 10 min at 4°C, the supernatant was suspended in buffer A and centrifuged again at 19000 RPM (RCSC rotor SS34 code 05 Sorvall Instruments DUPONT) for 90 min at 4°C. The pellet was then suspended in 10 mM HEPES, pH 7.4, 1 mM EDTA, 250 mM Sucrose, and 1x Complete EDTA-free protease inhibitor cocktail (Buffer B) and homogenized using a potter. Membranes were flash frozen in liquid N2 and stored at -80°C. [125I] Monocyte Chemoattractant Protein -1 (MCP-1) (25µCi; Perkin Elmer) was added to test compounds in DMSO (1% final). Membranes and WGA SPA beads (GE Healthcare) were added to give a final volume of 100 µl in 96-well plates with assay concentrations of 50 pM or 100 pM [125I]Monocyte Chemoattractant Protein -1 (respectively for hCCR2b or mCCR2b), 50 mM HEPES, pH 7.4, 5 mM MgCl2, 1 mM CaCl2, 0.1% BSA, 1-5 µg/well of membranes and 100 µg/well of WGA SPA beads. Binding was performed for 90 min at RT with strong agitation of speed 5 (Heidolph Titramax 100 SCITEC) and bound radioactivity was measured on a PerkinElmer 1450 MicroBeta counter. Specific binding was calculated by subtracting remaining radioactivity in the presence of 1000-fold excess of unlabeled compound. Binding data were analyzed using the Genedata Screener® software.

Row | Structure (SMILES) | Ki
1 | CCN1CCCC2(CC1)OC(=O)C(C)=C2C(=O)N1CCN(c2cccc(C(F)(F)F)c2)CC1 (stereo not drawn) [Compound 121, 8-ethyl-3-methyl-4-({4-[3-(trifluoromethyl)phenyl]piperazin-1-yl}carbonyl)-1-oxa-8-azaspiro[4.6]undec-3-en-2-one] | < 50 nM
2 | CC1=C(C(=O)N2CCN(c3cccc(C(F)(F)F)c3)CC2)C2(CCN(CCCc3ccccc3)CC2)OC1=O [Example 5, 3-methyl-8-(3-phenylpropyl)-4-({4-[3-(trifluoromethyl)phenyl]piperazin-1-yl}carbonyl)-1-oxa-8-azaspiro[4.5]dec-3-en-2-one] | < 50 nM
3 | CCN1CCC2(CC1)OC(=O)C(C)=C2C(=O)Nc1ccc(-n2ccc(C(F)(F)F)n2)cc1 [Compound 75, 8-ethyl-3-methyl-2-oxo-N-{4-[3-(trifluoromethyl)-1H-pyrazol-1-yl]phenyl}-1-oxa-8-azaspiro[4.5]dec-3-ene-4-carboxamide] | 500 to 2000 nM
4 | CCN1CCC2(CC1)OC(=O)C(C)=C2C(=O)N1CCN(c2cccc(C(F)(F)F)c2)CC1C (stereo not drawn) [Compound 84, 8-ethyl-3-methyl-4-({2-methyl-4-[3-(trifluoromethyl)phenyl]piperazin-1-yl}carbonyl)-1-oxa-8-azaspiro[4.5]dec-3-en-2-one] | < 50 nM
5 | CC1=C(C(=O)N2CCc3ccc(C(F)(F)F)cc3C2)C2(CCN(C(C)(C)C)CC2)OC1=O [Compound 77, 8-tert-butyl-3-methyl-4-{[7-(trifluoromethyl)-3,4-dihydroisoquinolin-2(1H)-yl]carbonyl}-1-oxa-8-azaspiro[4.5]dec-3-en-2-one] | < 50 nM
6 | CC1=C(C(=O)N2CCN(c3cccc(C(F)(F)F)c3)CC2)C2(CCN(CCc3ccccc3)CC2)OC1=O [Compound 102, 3-methyl-8-(2-phenylethyl)-4-({4-[3-(trifluoromethyl)phenyl]piperazin-1-yl}carbonyl)-1-oxa-8-azaspiro[4.5]dec-3-en-2-one] | < 50 nM
7 | CCN1CCC2(CC1)OC(=O)C(C)=C2C(=O)N1CCN(c2ccc(OC(F)(F)F)cc2)CC1 [Compound 93, 8-ethyl-3-methyl-4-({4-[4-(trifluoromethoxy)phenyl]piperazin-1-yl}carbonyl)-1-oxa-8-azaspiro[4.5]1dec-3-en-2-one] | 100 to 500 nM
8 | CCN1CCC2(CC1)OC(=O)C(C)=C2C(=O)N1CCc2ccc(C#N)cc2C1 [Compound 49, 2-[(8-ethyl-3-methyl-2-oxo-1-oxa-8-azaspiro[4.5]dec-3-en-4-yl)carbonyl]-1,2,3,4-tetrahydroisoquinoline-7-carbonitrile] | 100 to 500 nM
9 | CC1=C(C(=O)N2CCN(c3cccc(C(F)(F)F)c3)CC2)C2(CCN(CCc3ccncc3)CC2)OC1=O [Compound 12, 3-methyl-8-(2-pyridin-4-ylethyl)-4-({4-[3-(trifluoromethyl)phenyl]piperazin-1-yl}carbonyl)-1-oxa-8-azaspiro[4.5]dec-3-en-2-one] | 50 to 100 nM
10 | CC1=C(C(=O)N2CCN(c3cccc(C(F)(F)F)c3)CC2)C2(CCN(C3CCCOC3)CC2)OC1=O (stereo not drawn) [Compound 23] | < 50 nM
11 | CCN1CCC2(CC1)OC(=O)C(C)=C2C(=O)N1CCC(Nc2cccc(C(F)(F)F)c2)CC1 [Compound 59, 8-ethyl-3-methyl-4-[(4-{[3-(trifluoromethyl)phenyl]amino}piperidin-1-yl)carbonyl]-1-oxa-8-azaspiro[4.5]dec-3-en-2-one] | 500 to 2000 nM
12 | COC(CN1CCC2(CC1)OC(=O)C(C)=C2C(=O)N1CCN(c2cccc(C(F)(F)F)c2)CC1)c1ccccc1 (stereo not drawn) [Compound 7, 8-(2-methoxy-2-phenylethyl)-3-methyl-4-({4-[3-(trifluoromethyl)phenyl]piperazin-1-yl}carbonyl)-1-oxa-8-azaspiro[4.5]dec-3-en-2-one] | 50 to 100 nM
13 | CC1=C(C(=O)N2CCN(c3cccc(C(F)(F)F)c3)CC2)C2(CCN(CC(C)c3ccccc3)CC2)OC1=O (stereo not drawn) [Compound 105, 3-methyl-8-(2-phenylpropyl)-4-({4-[3-(trifluoromethyl)phenyl]piperazin-1-yl}carbonyl)-1-oxa-8-azaspiro[4.5]dec-3-en-2-one] | < 50 nM
14 | CCN1CCC2(CC1)OC(=O)C(C)=C2C(=O)N1CCc2ccc(F)cc2C1 [Compound 53, 8-ethyl-4-[(7-fluoro-3,4-dihydroisoquinolin-2(1H)-yl)carbonyl]-3-methyl-1-oxa-8-azaspiro[4.5]dec-3-en-2-one] | 100 to 500 nM
15 | CCN1CCC2(CC1)OC(=O)C(C)=C2C(=O)N1CCN(c2cc(OC)cc(C(F)(F)F)c2)CC1 [Compound 87, 8-ethyl-4-({4-[3-methoxy-5-(trifluoromethyl)phenyl]piperazin-1-yl}carbonyl)-3-methyl-1-oxa-8-azaspiro[4.5]dec-3-en-2-one] | < 50 nM
16 | CC1=C(C(=O)N2CCN(c3cccc(C(F)(F)F)c3)CC2)C2(CCN(C3CCCCC3)CC2)OC1=O [Compound 106, 8-cyclohexyl-3-methyl-4-({4-[3-(trifluoromethyl)phenyl]piperazin-1-yl}carbonyl)-1-oxa-8-azaspiro[4.5]dec-3-en-2-one] | < 50 nM
17 | CC1=C(C(=O)N2CCc3ncc(C(F)(F)F)cc3C2)C2(CCN(C)CC2)OC1=O [Compound 122, 3,8-dimethyl-4-{[3-(trifluoromethyl)-7,8-dihydro-1,6-naphthyridin-6(5H)-yl]carbonyl}-1-oxa-8-azaspiro[4.5]dec-3-en-2-one] | < 50 nM
18 | CCN1CCC2(CC1)OC(=O)C(C)=C2C(=O)NCCc1ccc(C(F)(F)F)cc1 [Compound 100, 8-ethyl-3-methyl-2-oxo-N-{2-[4-(trifluoromethyl)phenyl]ethyl}-1-oxa-8-azaspiro[4.5]dec-3-ene-4-carboxamide] | 500 to 2000 nM
19 | CC1=C(C(=O)N2CCN(c3cccc(C#N)c3)CC2)C2(CCN(Cc3ccccc3)CC2)OC1=O [Compound 111, 3-{4-[(8-benzyl-3-methyl-2-oxo-1-oxa-8-azaspiro[4.5]dec-3-en-4-yl)carbonyl]piperazin-1-yl}benzonitrile] | 500 to 2000 nM
20 | CC1=C(C(=O)N2CCc3ccc(C(F)(F)F)cc3C2)C2(CCN(C3COC3)CC2)OC1=O [Compound 32, 3-methyl-8-oxetan-3-yl-4-{[7-(trifluoromethyl)-3,4-dihydroisoquinolin-2(1H)-yl]carbonyl}-1-oxa-8-azaspiro[4.5]dec-3-en-2-one] | 50 to 100 nM
21 | CCN1CCC2(CC1)OC(=O)C(C)=C2C(=O)Nc1ccc(-c2cccc(C(F)(F)F)c2)cc1 [Compound 98, 8-ethyl-3-methyl-2-oxo-N-[3'-(trifluoromethyl)biphenyl-4-yl]-1-oxa-8-azaspiro[4.5]dec-3-ene-4-carboxamide] | 500 to 2000 nM
22 | CC1=C(C(=O)N2CCN(c3cccc(C(F)(F)F)c3)CC2)C2(CCNCC2)OC1=O [Example 1, 3-methyl-4-({4-[3-(trifluoromethyl)phenyl]piperazin-1-yl}carbonyl)-1-oxa-8-azaspiro[4.5]dec-3-en-2-one, dihydrochloride salt] | 100 to 500 nM
23 | CCN1CCC2(C1)OC(=O)C(C)=C2C(=O)N1CCN(c2cccc(C(F)(F)F)c2)CC1 (stereo not drawn) [Compound 118, 7-ethyl-3-methyl-4-({4-[3-(trifluoromethyl)phenyl]piperazin-1-yl}carbonyl)-1-oxa-7-azaspiro[4.4]non-3-en-2-one] | 50 to 100 nM
24 | CCN1CCC2(CC1)OC(=O)C(C)=C2C(=O)N1CCc2ccc(Cl)cc2C1 [Compound 50, 4-[(7-chloro-3,4-dihydroisoquinolin-2(1H)-yl)carbonyl]-8-ethyl-3-methyl-1-oxa-8-azaspiro[4.5]dec-3-en-2-one] | < 50 nM
